Results as given in patent publication US6929012B2, “Process for the isolation of a major harmful oxidant from cigarette smoke” (Council of Scientific and Industrial Research, priority 2001, dated 2005).

Test system: cs-oxidant-induced albumin oxidation
Test: Protection of cs-oxidant-induced albumin oxidation by chemical agents
Type: biochemical, bovine
Details: for inhibition of BSA oxidation: concentration ranging between 500 μM and 1 mM
Experimental: The incubation system contained 1 mg BSA and 50 μl of cs solution or its equivalent amounts obtained at different stages of purification in a final volume of 200 μl of 50 mM potassium phosphate buffer, pH 7.4. The incubation was carried out at 37° C. for 1 hour. Protein carbonyl was measured by reaction with 2,4-dinitrophenyl hydrazine (DNPH) following the method of Levine et al (Methods Enzymol. 186: 464-478, 1990) similar to that done before in our laboratory (Panda et al., Free Radic. Biol. & Med. 27: 1064-1079, 1999). […] To this washed pellet was then added 500 μl of 10 mM DNPH solution in 2M HCl and incubated at 37° C. for 1 h with occasional vortexing. Thereafter, the protein was again precipitated with 500 μl of cold 20% trichloroacetic acid solution and the pellet was first washed with 500 μl of 10% trichloroacetic acid solution followed by three successive washes with 1 ml of a mixture of ethanol: ethyl acetate (1:1, v/v). Finally, the washed precipitate was dissolved in 1 ml of 6M guanidium hydrochloride (pH 2.3) and the absorbance was measured at 390 nm using a double beam Hitachi spectrophotometer model U 3020 against a reagent blank of 2M HCl. The results were expressed as n moles of phenylhydrazones formed per milligram protein using a molar extinction coefficient of 22,000.
The chemical compounds/agents include, besides ascorbic acid, tartaric acid, citric acid, oxalic cid, glutathione, tea extract and individual components of tea (Table. 4).
The incubation system and carbonyl estimation are described in the text.

O=C(O)C(=O)O [Oxalic acid]
% Protection (agent 500 μM): 53%
% Protection (agent 500 μM, listed as oxalic acid): up to 53%

Oc1cc(O)c2c(c1)O[C@H](c1cc(O)c(O)c(O)c1)[C@H](O)C2 [Epigallocatechin]
% Protection (agent 140 μg): 95%
% Protection (agent 140 μg, listed as epigallocatechin): up to 95%

Catechin
% Protection (agent 750 μg): 54%
% Protection (agent 750 μg, listed as catechin): up to 54%

N[C@@H](CCC(=O)N[C@@H](CS)C(=O)NCC(=O)O)C(=O)O [Glutathione]
% Protection (agent 1 mM): 37%
% Protection (agent 1 mM, listed as glutanthione): up to 37%

NCCCC[C@H](N)C(=O)O [Lysine]
% Protection (agent 1 mM): 35%
% Protection (agent 1 mM, listed as lysine): up to 35%

O=C(O)CC(O)(CC(=O)O)C(=O)O [Citric acid]
% Protection (agent 500 μM): 67%
% Protection (agent 1 mM): 75%
inhibition of BSA oxidation: up to 75%

N[C@@H](Cc1c[nH]cn1)C(=O)O [Histidine]
% Protection (agent 1 mM): 67%
% Protection (agent 1 mM, listed as histidine): up to 67%

O=C(O)C(O)C(O)C(=O)O (centres unmarked) [Tartaric acid]
% Protection (agent 500 μM): 67%
% Protection (agent 1 mM): 75%
inhibition of BSA oxidation: up to 75%

O=C(O)CCC(=O)O [Succinic acid]
% Protection (agent 1 μM (so in the source)): 60%
% Protection (agent 1 mM): 60%
% Protection (agent 1 mM, listed as succinic acid): up to 60%

O=C1O[C@H]([C@@H](O)CO)C(O)=C1O [Ascorbic acid]
% Protection (agent 100 μM): 76%
% Protection (agent 100 μM, listed as ascorbic acid): up to 76%
